Patent US9085576B2 (AMGEN INC., priority 2013, dated 2015)

Key:
BACE = BACE (Homo sapiens (Human), UniProt P56817); test: In vitro BACE cell-based assay (Aβ40 in conditioned medium, sandwich ELISA)
[1] = target: Beta Secretase enzyme (BACE) (Homo sapiens (Human), UniProt P56817); test: In vitro enzymatic BACE FRET assay; format: biochemical; settings: read-out: BACE1 Enzyme assay IC50
Cathepsin D (Cat D) = Cathepsin D (Cat D) (Homo sapiens (Human), UniProt P07339); test: In vitro enzymatic Cathepsin D (Cat D) FRET assay; format: biochemical; settings: read-out: CatD IC50
Cathepsin D (Cat D), sequence (P07339 65-412, species assumed): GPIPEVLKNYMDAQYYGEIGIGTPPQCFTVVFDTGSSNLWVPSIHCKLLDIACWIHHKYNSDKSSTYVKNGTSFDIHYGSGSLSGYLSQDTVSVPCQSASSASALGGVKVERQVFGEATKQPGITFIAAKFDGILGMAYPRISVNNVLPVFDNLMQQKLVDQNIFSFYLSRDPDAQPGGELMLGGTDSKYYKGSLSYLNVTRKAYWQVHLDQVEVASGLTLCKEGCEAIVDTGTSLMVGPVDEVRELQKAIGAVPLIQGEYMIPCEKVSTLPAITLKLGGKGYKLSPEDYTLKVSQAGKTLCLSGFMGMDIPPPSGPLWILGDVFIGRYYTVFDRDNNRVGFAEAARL

BACE, sequence (P56817 46-501, species assumed): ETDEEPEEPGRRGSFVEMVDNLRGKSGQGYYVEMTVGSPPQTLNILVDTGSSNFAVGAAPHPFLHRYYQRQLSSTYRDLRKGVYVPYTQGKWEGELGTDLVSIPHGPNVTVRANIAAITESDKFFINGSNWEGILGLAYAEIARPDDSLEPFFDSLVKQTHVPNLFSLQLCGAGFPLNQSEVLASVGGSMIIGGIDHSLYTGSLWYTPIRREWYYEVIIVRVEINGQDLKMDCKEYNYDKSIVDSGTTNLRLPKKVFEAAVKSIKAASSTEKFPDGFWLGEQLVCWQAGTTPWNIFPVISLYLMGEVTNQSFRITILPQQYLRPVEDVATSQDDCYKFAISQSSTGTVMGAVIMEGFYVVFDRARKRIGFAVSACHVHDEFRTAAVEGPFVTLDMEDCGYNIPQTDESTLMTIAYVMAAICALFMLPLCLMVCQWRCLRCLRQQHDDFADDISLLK
Beta Secretase enzyme (BACE), sequence (P56817 46-501): as the sequence (P56817 46-501, species assumed) above

Row | SMILES | IC50 (BACE) [µM] | IC50 [1] [µM] | IC50 (Cathepsin D (Cat D)) [µM]
1 | CC#CCOc1cnc(C(=O)Nc2ccc(F)c([C@]3(C)N=C(N)O[C@H]4C[C@H]43)c2)c(C)c1 [Example 57, N-(3-((1S,5R,6S)-3-amino-5-methyl-2-oxa-4-azabicyclo[4.1.0]hept-3-en-5-yl)-4-fluorophenyl)-5-(but-2-yn-1-yloxy)-3-methylpicolinamide] | 0.455 | 2.25 | 333
2 | NC1=N[C@](c2cc(NC(=O)c3ccc(Cl)cn3)ccc2F)(C(F)F)[C@@H]2C[C@@H]2O1 [Example 60, N-(3-((1S,5R,6S)-3-amino-5-(difluoromethyl)-2-oxa-4-azabicyclo[4.1.0]hept-3-en-5-yl)-4-fluorophenyl)-5-chloropicolinamide] | > 15.6 | > 40 | > 400
3 | COc1cnc(C(=O)Nc2ccc(F)c([C@@]3(C(F)F)N=C(N)O[C@@H]4C[C@@H]43)c2)c(C)n1 [Example 63, N-(3((1R,5S,6R)-3-amino-5-(difluoromethyl)-2-oxa-4-azabicyclo[4.1.0]hept-3-en-5-yl)-4-fluorophenyl)-5-methoxy-3-methylpyrazine-2-carboxamide] | 0.0584 | 0.0637 | 99.8
4 | COc1cnc(C(=O)Nc2ccc(F)c([C@]3(C(F)F)N=C(N)O[C@H]4C[C@H]43)c2)c(C)n1 [Example 64, N-(3-((1S,5R,6S)-3-amino-5-(difluoromethyl)-2-oxa-4-azabicyclo[4.1.0]hept-3-en-5-yl)-4-fluorophenyl)-5-methoxy-3-methylpyrazine-2-carboxamide] | > 15.6 | 6.19 | 191
5 | C[C@]1(c2cc(NC(=O)c3ccc(Cl)cn3)ccc2F)N=C(N)O[C@@H]2C[C@@H]21 [Example 68] | 0.0063 | 0.065 | 476
6 | Cc1c(C(=O)Nc2ccc(F)c([C@@]3(C(F)F)N=C(N)O[C@@H]4C[C@@H]43)c2)nc2ccc(Cl)cn12 [Example 69] | 0.0372 | 0.126 | 440
7 | COc1cnc(C(=O)Nc2ccc(F)c([C@@]3(C(F)F)N=C(N)O[C@@H]4C[C@@H]43)c2)cn1 [Example 72, N-(3-((1R,5S,6R)-3-amino-5-(difluoromethyl)-2-oxa-4-azabicyclo[4.1.0]hept-3-en-5-yl)-4-fluorophenyl)-5-methoxypyrazine-2-carboxamide] | 0.0604 | 0.0763 | 1110
8 | COc1ccc(C(=O)Nc2ccc(F)c([C@]3(CF)N=C(N)O[C@H]4C[C@H]43)c2F)nc1 [Example 78, N-(3-((1S,5R,6S)-3-amino-5-(fluoromethyl)-2-oxa-4-azabicyclo[4.1.0]hept-3-en-5-yl)-2,4-difluorophenyl)-5-methoxypicolinamide] | > 15.6 | > 40 | > 400
9 | COc1ccc(C(=O)Nc2ccc(F)c([C@@]3(CF)N=C(N)O[C@@H]4C[C@@H]43)c2F)nc1 [Example 79, N-(3-((1R,5S,6R)-3-amino-5-(fluoromethyl)-2-oxa-4-azabicyclo[4.1.0]hept-3-en-5-yl)-2,4-difluorophenyl)-5-methoxypicolinamide] | 0.12 | 3.04 | 942
10 | COC[C@]1(c2cc(NC(=O)c3cnc(OC)cn3)ccc2F)N=C(N)O[C@@H]2C[C@@H]21 [Example 80, N-(3-((1R,5S,6R)-3-amino-5-(methoxymethyl)-2-oxa-4-azabicyclo[4.1.0]hept-3-en-5-yl)-4-fluorophenyl)-5-methoxypyrazine-2-carboxamide] | 0.183 | 7.95 | > 400
11 | COC[C@@]1(c2cc(NC(=O)c3cnc(OC)cn3)ccc2F)N=C(N)O[C@H]2C[C@H]21 [Example 81, N-(3-((1S,5R,6S)-3-amino-5-(methoxymethyl)-2-oxa-4-azabicyclo[4.1.0]hept-3-en-5-yl)-4-fluorophenyl)-5-methoxypyrazine-2-carboxamide] | > 15.6 | > 40 | > 400
12 | COC[C@]1(c2cc(NC(=O)c3ccc(Cl)cn3)ccc2F)N=C(N)O[C@@H]2C[C@@H]21 [Example 82, N-(3-((1R,5S,6R)-3-amino-5-(methoxymethyl)-2-oxa-4-azabicyclo[4.1.0]hept-3-en-5-yl)-4-fluorophenyl)-5-chloropicolinamide] | 0.157 | 2.74 | > 400
13 | COC[C@@]1(c2cc(NC(=O)c3ccc(Cl)cn3)ccc2F)N=C(N)O[C@H]2C[C@H]21 [Example 83, N-(3-((1 S,5R,6S)-3-amino-5-(methoxymethyl)-2-oxa-4-azabicyclo[4.1.0]hept-3-en-5-yl)-4-fluorophenyl)-5-chloropicolinamide] | > 15.6 | > 40 | > 400
14 | COc1cnc(C(=O)Nc2ccc(F)c([C@@]3(C(F)F)N=C(N)O[C@@H]4C[C@@H]43)c2)c(OC)n1 [Example 84, N-(3-((1R,5S,6R)-3-amino-5-(difluoromethyl)-2-oxa-4-azabicyclo[4.1.0]hept-3-en-5-yl)-4-fluorophenyl)-3,5-dimethoxypyrazine-2-carboxamide] | 0.361 | 0.494 | > 400
15 | COc1cnc(C(=O)Nc2cc(Cl)c(F)c([C@@]3(CF)N=C(N)O[C@@H]4C[C@@H]43)c2)cn1 [Example 85, N-(3-((1R,5S,6R)-3-amino-5-(fluoromethyl)-2-oxa-4-azabicyclo[4.1.0]hept-3-en-5-yl)-5-chloro-4-fluorophenyl)-5-methoxypyrazine-2-carboxamide] | 0.0067 | 0.034 | 373
16 | COc1cc(C#N)cnc1C(=O)Nc1cc(Cl)c(F)c([C@@]2(CF)N=C(N)O[C@@H]3C[C@@H]32)c1 [Example 86, N-(3-((1R,5S,6R)-3-amino-5-(fluoromethyl)-2-oxa-4-azabicyclo[4.1.0]hept-3-en-5-yl)-5-chloro-4-fluorophenyl)-5-cyano-3-methoxypicolinamide] | 0.0094 | 0.0759 | 892
17 | Cc1cc(OC(F)F)cnc1C(=O)Nc1cc(Cl)c(F)c([C@@]2(CF)N=C(N)O[C@@H]3C[C@@H]32)c1 [Example 87, N-(3-((1R,5S,6R)-3-amino-5-(fluoromethyl)-2-oxa-4-azabicyclo[4.1.0]hept-3-en-5-yl)-5-chloro-4-fluorophenyl)-5-(difluoromethoxy)-3-methylpicolinamide] | 0.0135 | 0.0323 | 164
18 | N#Cc1ccc(C(=O)Nc2cc(Cl)c(F)c([C@@]3(CF)N=C(N)O[C@@H]4C[C@@H]43)c2)nc1 [Example 88, N-(3-((1R,5S,6R)-3-amino-5-(fluoromethyl)-2-oxa-4-azabicyclo[4.1.0]hept-3-en-5-yl)-5-chloro-4-fluorophenyl)-5-cyanopicolinamide] | 0.0098 | 0.0294 | 302
19 | COc1cnc(C(=O)Nc2cc(Cl)c(F)c([C@@]3(CF)N=C(N)O[C@@H]4C[C@@H]43)c2)c(C)n1 [Example 89, N-(3-((1R,5S,6R)-3-amino-5-(fluoromethyl)-2-oxa-4-azabicyclo[4.1.0]hept-3-en-5-yl)-5-chloro-4-fluorophenyl)-5-methoxy-3-methylpyrazine-2-carboxamide] | 0.0245 | 0.0731 | 574
20 | Cc1cc(C#N)cnc1C(=O)Nc1cc(Cl)c(F)c([C@@]2(CF)N=C(N)O[C@@H]3C[C@@H]32)c1 [Example 91, N-(3-((1R,5S,6R)-3-amino-5-(fluoromethyl)-2-oxa-4-azabicyclo[4.1.0]hept-3-en-5-yl)-5-chloro-4-fluorophenyl)-5-cyano-3-methylpicolinamide] | 0.0073 | 0.0506 | 260
21 | NC1=N[C@](c2cc(NC(=O)c3ccc(Cl)cn3)ccc2Cl)(C(F)F)[C@@H]2C[C@@H]2O1 [Example 92, N-(3-((1S,5R,6S)-3-amino-5-(difluoromethyl)-2-oxa-4-azabicyclo[4.1.0]hept-3-en-5-yl)-4-chlorophenyl)-5-chloropicolinamide] | > 15.6 | 17.1 | 770
22 | COc1ccc(C(=O)Nc2ccc(Cl)c([C@@]3(C(F)F)N=C(N)O[C@@H]4C[C@@H]43)c2)nc1 [Example 100, N-(3-((1R,5S,6R)-3-amino-5-(difluoromethyl)-2-oxa-4-azabicyclo[4.1.0]hept-3-en-5-yl)-4-chlorophenyl)-5-methoxypicolinamide] | 0.0209 | 0.0611 | 190
23 | COc1cnc(C(=O)Nc2ccc(Cl)c([C@@]3(C(F)F)N=C(N)O[C@@H]4C[C@@H]43)c2)c(C)c1 [Example 101, N-(3-((1R,5S,6R)-3-amino-5-(difluoromethyl)-2-oxa-4-azabicyclo[4.1.0]hept-3-en-5-yl)-4-chlorophenyl)-5-methoxy-3-methylpicolinamide] | 0.0598 | 0.0971 | 258
24 | NC1=N[C@@](c2cc(NC(=O)c3cnc(OCc4cocn4)cn3)ccc2Cl)(C(F)F)[C@H]2C[C@H]2O1 [Example 102, N-(3-((1R,5S,6R)-3-amino-5-(difluoromethyl)-2-oxa-4-azabicyclo[4.1.0]hept-3-en-5-yl)-4-chlorophenyl)-5-(oxazol-4-ylmethoxy)pyrazine-2-carboxamide] | 0.013 | 0.0356 | 592
25 | COc1cnc(C(=O)Nc2ccc(F)c([C@@]3(C(F)F)N=C(N)O[C@@H]4C[C@@H]43)c2)nc1 [Example 103, N-(3-((1R,5S,6R)-3-amino-5-(difluoromethyl)-2-oxa-4-azabicyclo[4.1.0]hept-3-en-5-yl)-4-fluorophenyl)-5-methoxypyrimidine-2-carboxamide] | 0.0574 | 0.121 | 763
26 | COc1cnc(C(=O)Nc2ccc(Cl)c([C@@]3(C(F)F)N=C(N)O[C@@H]4C[C@@H]43)c2)nc1 [Example 104, N-(3-((1R,5S,6R)-3-amino-5-(difluoromethyl)-2-oxa-4-azabicyclo[4.1.0]hept-3-en-5-yl)-4-chlorophenyl)-5-methoxypyrimidine-2-carboxamide] | 0.0339 | 0.0873 | 374
